Measurements: US20240300933A1, “SALT AND CRYSTAL FORMS OF AN HMOX1 INDUCER” (MITOBRIDGE INC., priority 2021, published 2024)
In brackets after ≈: the same amount, converted by molar mass.

Experiments:
[1] = Thermodynamic solubility in water and bio-media (SGF, FaSSIF, FeSSIF) at 37° C.; type: physicochemical; conditions: for pH / FC (Form Change) / solubility at 1 h / solubility at 4 h / solubility at 24 h: 37° C.; for pH: filtrate of supernatant; for solubility at 1 h / solubility at 4 h / solubility at 24 h: thermodynamic from solid
Method: Specifically, about 40 mg samples (calculated with freebase) were added to 4.0 mL of each buffer. After shaking at 100 rpm at 37° C. for 1/4/24 hour(s), about 1.0 mL of each suspension was centrifuged for 5 minutes. The solids were analyzed by XRPD for crystal form, and the filtrates of supernatants were detected by HPLC for solubility and by pH meter for pH value.

[2] = Hygroscopicity by dynamic vapor sorption (DVS); conditions: for weight gain: DVS, 25° C., at 90% RH; for hygroscopicity compared with the citrate salt, in words: monophosphate
Method: Dynamic vapor sorption (DVS) was performed with an ADVENTURE series DVS at 25° C. under nitrogen blow. Approximately 30 milligrams of material was used.

[3] = PK study in Cynomolgus macaques, PO single dose; type: in vivo, Cynomolgus macaques (Macaca fascicularis); conditions: for exposure (AUC) compared to the free form, in words: Cynomolgus monkeys, monophosphate; for AUC(0-inf) / AUC(0-t) / Cmax: male, cynomolgus monkey, blood
Method: A PK Study of Crystalline form of 1:1 compound (I) Phosphate and compound (I) crystal form was conducted in Cynomolgus macaques (Cynomolgus non-human primates; Macaca fascicularis). […] Blood samples were collected at 0.25, 0.5, 1, 2, 4, 6, 8 and 24 hours, and were analyzed to determine Cmax and exposure (AUC).

pKa of the freebase form = type: physicochemical; conditions: basic
[4] = simulated gastric fluid, SGF, 1 Hr
[5] = simulated gastric fluid, SGF, 4 Hrs
[6] = simulated gastric fluid, SGF, 24 Hrs
[7] = Cynomolgus macaques, 10 mg/Kg PO single dose
[8] = Cynomolgus macaques, 100 mg/Kg PO single dose

## Cn1c(Nc2nc3ccccc3o2)nc2cc(C(=O)NCCOCCO)ccc21.O=P(O)(O)O [1:1 Compound (I) Phosphate, 2-[(1,3-benzoxazol-2-yl)amino]-N-[2-(2-hydroxyethoxy)ethyl]-1-methyl-1H-benzimidazole-5-carboxamide monophosphate]
[1]; FaSSIF and SGF
  solubility compared to Compound (I), in words: improved solubility
[1]; FaSSIF, 1 Hr
  pH: 2.37
  solubility at 1 h: 190 µg/mL
[1]; FaSSIF, 1 Hr, solid by XRPD
  FC (Form Change): Yes
[1]; FaSSIF, 4 Hrs
  pH: 2.37
  solubility at 4 h: 180 µg/mL
[1]; FaSSIF, 24 Hrs
  pH: 2.36
  solubility at 24 h: 70 µg/mL
[1]; FeSSIF, 1 Hr
  pH: 4.06
  solubility at 1 h: 1400 µg/mL
[1]; FeSSIF, 1 Hr, solid by XRPD
  FC (Form Change): Yes
[1]; FeSSIF, 4 Hrs
  pH: 4.21
  solubility at 4 h: 770 µg/mL
[1]; FeSSIF, 24 Hrs
  pH: 4.31
  solubility at 24 h: 390 µg/mL
[1]; SGF, 1 Hr
  FC (Form Change): Clear
  pH: 1.36
[1]; SGF, 4 Hrs
  FC (Form Change): Clear
  pH: 1.37
[1]; SGF, 24 Hrs
  FC (Form Change): Clear
  pH: 1.41
[1]; [4]
  solubility at 1 h: > 25900 µg/mL
[1]; [5]
  solubility at 4 h: > 28400 µg/mL
[1]; [6]
  solubility at 24 h: > 28400 µg/mL
[1]; water, 1 Hr
  solubility at 1 h: 4390 µg/mL
  pH: 2.05
[1]; water, 4 Hrs
  solubility at 4 h: 3230 µg/mL
  pH: 2.04
[1]; water, 24 Hrs
  solubility at 24 h: 2060 µg/mL
  pH: 1.97
[1]; water and bio-relevant media
  solubility compared to the free form, in words: significant solubility improvement
[1]; water, 1 Hr, solid by XRPD
  FC (Form Change): Yes
[2]
  weight gain: 0.835%
  hygroscopicity compared with the citrate salt, in words: low hygroscopicity
[2]; listed as phosphate salt
  hygroscopicity compared with the citrate salt, in words: lower hygroscopicity
[3]; Cynomolgus macaques, 10 and 100 mpk oral dose
  higher exposure compared to free form Compound (I): 1.5 times
[3]; Cynomolgus macaques, Table 7
  Cmax compared to the free form, in words: roughly double
[3]; 10 and 100 mpk oral dose, listed as phosphate salt
  exposure (AUC) compared to the free form, in words: roughly double
[3]; 10 and 100 mpk oral dose
  exposure (AUC) compared to the free form, in words: roughly twice the exposure
[3]; [7]
  AUC(0-inf): 3590 ng·h/mL
  AUC(0-t): 3480 ng·h/mL
  Cmax: 322 ng/mL
[3]; [8]
  AUC(0-inf): 9330 ng·h/mL
  AUC(0-t): 7580 ng·h/mL
  Cmax: 723 ng/mL

## Cn1c(Nc2nc3ccccc3o2)nc2cc(C(=O)NCCOCCO)ccc21 [Compound (I), 2-[(1,3-benzoxazol-2-yl)amino]-N-[2-(2-hydroxyethoxy)ethyl]-1-methyl-1H-benzimidazole-5-carboxamide]
[1]; FaSSIF, 1 Hr
  pH: 6.30
[1]; FaSSIF, 1 Hr, solid by XRPD
  FC (Form Change): No
[1]; FaSSIF, 4 Hrs
  pH: 6.35
[1]; FaSSIF, 4 Hrs, solid by XRPD
  FC (Form Change): No
[1]; FaSSIF, 24 Hrs
  pH: 5.99
[1]; FaSSIF, 24 Hrs, solid by XRPD
  FC (Form Change): No
[1]; FeSSIF, 1 Hr
  pH: 4.78
[1]; FeSSIF, 1 Hr, solid by XRPD
  FC (Form Change): No
[1]; FeSSIF, 4 Hrs
  pH: 4.73
[1]; FeSSIF, 4 Hrs, solid by XRPD
  FC (Form Change): No
[1]; FeSSIF, 24 Hrs
  pH: 4.81
[1]; FeSSIF, 24 Hrs, solid by XRPD
  FC (Form Change): No
[1]; SGF, 1 Hr
  FC (Form Change): No
  pH: 2.34
[1]; SGF, 4 Hrs
  FC (Form Change): No
  pH: 2.16
[1]; SGF, 24 Hrs
  FC (Form Change): No
  pH: 2.51
[1]; [4]
  solubility at 1 h: 7040 µg/mL (≈ 17.8 mM)
[1]; [5]
  solubility at 4 h: 6860 µg/mL (≈ 17.3 mM)
[1]; [6]
  solubility at 24 h: 7080 µg/mL (≈ 17.9 mM)
[1]; water, 1 Hr
  pH: 5.69
[1]; water, 1 Hr, solid by XRPD
  FC (Form Change): No
[1]; water, 4 Hrs
  pH: 5.07
[1]; water, 4 Hrs, solid by XRPD
  FC (Form Change): No
[1]; water, 24 Hrs
  pH: 5.95
[1]; water, 24 Hrs, solid by XRPD
  FC (Form Change): No
pKa of the freebase form
  pKa: ~2.75
[3]; [7]
  AUC(0-inf): 2030 ng·h/mL
  AUC(0-t): 1920 ng·h/mL
  Cmax: 164 ng/mL
[3]; [8]
  AUC(0-inf): 4740 ng·h/mL
  AUC(0-t): 4080 ng·h/mL
  Cmax: 350 ng/mL

## Citrate
[2]
  weight gain: 3.223%
